Values after ≈ are worked out from the molar mass of the structure shown. Like-named read-outs stand apart in the source and are kept apart here.
Experiments:
[1] = tested on: constitutive ERK phosphorylation in HCT-116 cells (KRAS G13D); test: HCT-116 AlphaLISA SureFire pERK1/2 Cellular Assay; assay type: cell-based; settings: Homo sapiens
Description: HCT-116 AlphaLISA SureFire pERK1/2 Cellular Assay
(§1) The human HCT-116 colorectal carcinoma cell line (ATCC CCL-247) endogenously expresses the KRAS^G13D mutation, which leads to constitutive activation of the MAP kinase pathway and phosphorylation of ERK. […] Assay read outs took place 2 or 24 hours after dosing with compounds. On the first day, HCT-116 cells were harvested, resuspended in growth medium (McCoys5A with Glutamax (Life Technologies 36600021) and 10% heat-inactivated fetal bovine serum (Sigma F9665)), and counted. Cells were plated in 100 μl per well in each well of a 96-well culture dish (Sigma CLS3598) to a final density of 30,000 (2 hr read) or 15,000 (24 hr read) cells per well and incubated over night at 37° C. and 5% CO2. On day 2, the growth medium was exchanged for dosing medium (McCoys5A with Glutamax (Life Technologies 36600021) and 1% heat-inactivated fetal bovine serum (Sigma F9665)) and the cells were dosed with compounds to produce a 10-point dose response, where the top concentration was 1 μM and subsequent concentrations were at ⅓ log dilution intervals. A matched DMSO control was included. The cells were subsequently incubated for either 2 or 24 hours at 37° C. and 5% CO2. After incubation, media was removed and the cells were incubated with lysis buffer containing phosphatase inhibitors for 15 minutes at room temperature. Cell lysates were transferred to a ½ area 96 well white Optiplate™ (Perkin Elmer 6005569) and incubated with anti-mouse IgG acceptor beads, a biotinylated anti-ERK1/2 rabbit antibody recognizing both phosphorylated and non-phosphorylated ERK1/2, a mouse antibody targeted to the Thr202/Tyr204 epitope and recognizing phosphorylated ERK proteins only, and streptavidin-coated donor beads. The biotinylated antibody binds to the streptavidin-coated donor beads and the phopsho-ERK1/2 antibody binds to the acceptor beads. Plates were read on an EnVision reader (Perkin Elmer) and excitation of the beads at 680 nm with a laser induced the release of singlet oxygen molecules from the donor beads that trigger energy transfer to the acceptor beads in close proximity, producing a signal that can be measured at […]. Both antibodies bound to phosphorylated ERK proteins, bringing the donor and acceptor beads into close proximity. All data were analyzed using the Dotmatics or GraphPad Prism software packages. Inhibition of ERK phosphorylation was assessed by determination of the absolute IC50 value, which is defined as the concentration of compound required to decrease the level of phosphorylated ERK proteins by 50% when compared to DMSO control.

[2] = tested on: constitutive ERK phosphorylation in WiDr cells (BRAF V600E); test: WiDr AlphaLISA SureFire pERK1/2 Cellular Assay; assay type: cell-based; settings: Homo sapiens
Description: [Worded in the source for another cell line; used here, by the source, with some conditions changed.] as §1
WiDr AlphaLISA SureFire pERK1/2 Cellular Assay […]

[3] = tested on: RAF dimers in HCT-116 cells (Encorafenib-induced pERK signalling); test: HCT-116 AlphaLISA SureFire pERK1/2 Cellular Assay (Dimer); assay type: cell-based; settings: Homo sapiens
Description: as §1
HCT-116 AlphaLISA SureFire pERK1/2 Cellular Assay (Dimer) […]

[4] = tested on: BRAF monomers in A375 cells (BRAF V600E, pERK); test: A375 AlphaLISA SureFire pERK1/2 Cellular Assay (Monomer); assay type: cell-based; settings: Homo sapiens
Description: [Worded in the source for another cell line; used here, by the source, with some conditions changed.] as §1
A375 AlphaLISA SureFire pERK1/2 Cellular Assay (Monomer) […]

[5] = Microsomal Stability Assay (HLM); assay type: in vitro ADME; settings: human liver microsomes, 0.5 mg/mL protein, 1 μM compound, 37° C.
Description: (§2) Microsomal Stability Assay
(§3) The stability studies were performed manually using the substrate depletion approach. Test compounds were incubated at 37° C. with cryo-preserved mouse or human liver microsomes (Corning) at a protein concentration of 0.5 mg·mL^−1 and a final substrate concentration of 1 μM. Aliquots were removed from the incubation at defined timepoints and the reaction was terminated by adding to ice-cold organic solvent. Compound concentrations were determined by LC-MS/MS analysis. The natural log of the percentage of compound remaining was plotted against each time point and the slope determined. The half-life (t1/2) and CLint were calculated using Equations 1 and 2, respectively. Data analysis was performed using Excel (Microsoft, USA).
(§4) HLM (human liver microsomes) and MLM (mouse liver microsomes) stability assay results are described in Table 34C.

[6] = Microsomal Stability Assay (MLM); assay type: in vitro ADME; settings: mouse liver microsomes, 0.5 mg/mL protein, 1 μM compound, 37° C.
Description: as §2, §3, §4

[7] = Hepatocyte Stability Assay (HLH); assay type: in vitro ADME; settings: human hepatocytes, 0.5×10^6 cells/mL, 1 μM compound, 37° C.
Description: (§5) Hepatocyte Stability Assay
(§6) Hepatocyte stability studies were performed manually using the substrate depletion approach. Compounds were incubated at 37° C. with cryo-preserved mouse (Bioreclamation) or human (Corning) hepatocytes at a cell density of 0.5×10^6 cells/mL and a final compound concentration of 1 μM. Sampling was performed at defined timepoints and the reaction was terminated by adding to ice-cold organic solvent. Compound concentrations were determined by LC-MS/MS analysis. The natural log of the percentage of compound remaining was plotted against each time point and the slope determined. The half-life (t1/2) and CLint were calculated using Equations 1 and 3, respectively. Data analysis was performed using Excel (Microsoft, USA).
(§7) HLH (human liver hepatocytes) and MLH (mouse liver heptaocytes) stability assay results are described in Table 34C.

[8] = Plasma Protein Binding Assay (hPPB); assay type: in vitro ADME; settings: human plasma, equilibrium dialysis, 5 μM, 4 hours, 37° C.
Description: (§8) Plasma Protein Binding Assay
(§9) The plasma protein binding was determined by the equilibrium dialysis method. A known concentration of compound (5 μM) in previously frozen human or mouse plasma (Sera Labs) was dialysed against phosphate buffer using a RED device (Life Technologies) for 4 hours at 37° C. The concentration of compound in the protein containing (PC) and protein free (PF) sides of the dialysis membrane were determined by LC-MS/MS and the % free compound was determined by equation 4. Data analysis was performed using Excel (Microsoft, USA).
(§10) hPPB (human plasma protein binding) and mPPB (mouse plasma protein binding) results are described in Table 34D.

[9] = Plasma Protein Binding Assay (mPPB); assay type: in vitro ADME; settings: mouse plasma, equilibrium dialysis, 5 μM, 4 hours, 37° C.
Description: as §8, §9, §10

HCT-116 cells = test: HCT-116 CellTiter-Glo 3D Cell Proliferation Assay; assay type: cell-based; settings: Homo sapiens, HCT116 spheroids, read-out: 3D HCT116 pGI50 (converted)
Description: HCT-116 CellTiter-Glo 3D) Cell Proliferation Assay
On the first day, HCT-116 cells were harvested, resuspended in growth medium (McCoys5A with Glutamax (Life Technologies 36600021) with 10% heat-inactivated fetal bovine serum (Sigma F9665)), and counted. Cells were plated in 100 μl per well in each well of a Corning 7007 96-well clear round bottom Ultra-Low Attachment plate (VWR 444-1020) to a final density of 1000 cells per well. Cells were seeded for pre- and post-treatment readouts. The cells were then incubated at 37° C. and 5% CO2 for 3 days (72 hours) to allow spheroid formation. After 72 hours, the plate seeded for a pre-treatment read was removed from the incubator to allow equilibration to room temperature for 30 minutes, before CellTitre-Glo® reagent was added to each well. The plates were incubated at room temperature for 5 minutes shaking at 300 rpm, followed by an incubation of 25 minutes on the benchtop before being read on the Envision reader (Perkin Elmer) as described below. On the same day, the cells plated for the post-treatment readout were dosed with compounds to produce a 9-point dose response, where the top concentration was 15 M and following concentrations were at ½ log dilution intervals. […] Therefore, plates were read on an EnVision reader (Perkin Elmer) and luminescence signals were recorded. […]

WiDr cells = test: WiDr CellTiter-Glo 3D Cell Proliferation Assay; assay type: cell-based; settings: Homo sapiens, WiDr spheroids, read-out: 3D WiDr pGI50 (converted)
Description: The CellTitre Glo® reagent lyses the cells and contains luciferin and a luciferase (Ultra-Glo™ Recombinant Luciferase), which in the presence of ATP and oxygen can produce bioluminescence from luciferin. Therefore, plates were read on an EnVision reader (Perkin Elmer) and luminescence signals were recorded. Cell proliferation was determined on 4 days after dosing relative to the pre-treatment read. All data were analyzed using the Dotmatics or GraphPad Prism software packages. Inhibition of proliferation was assessed by determination of the GIso value, which was defined as the concentration of compound required to decrease the level of cell proliferation by 50% when compared to DMSO control.
The human WiDr colorectal adenocarcinoma cell line (ATCC CCL-218) endogenously expresses the BRAF^V600E mutation, which leads to enhanced survival and proliferative signaling.

[10] = Hepatocyte Stability Assay (MLH); assay type: in vitro ADME; settings: mouse hepatocytes, 0.5×10^6 cells/mL, 1 μM compound, 37° C.
Description: as §5, §6, §7

FeSSIF Solubility Assay = assay type: physicochemical; settings: fed state simulated intestinal fluid (FeSSIF), thermodynamic from solid, pH 5 acetate buffer, 37° C., read-out: FESSIF sol
Description: 1 mL of fed state simulated intestinal fluid (FeSSIF), prepared using FaSSIF/FeSSIF/FaSSGF powder (Biorelevant.com) and pH 5 acetate buffer, was added to 1.0 mg of compound and then incubated for 24 h (Bioshake iQ, 650 rpm, 37° C.). Following filtration under positive pressure, the concentration of compound in solution was assessed by LC-UV in comparison to the response for a calibration standard of known concentration (250 μM). FeSSIF solubility results are described in Table 34D.

[11] = HCT-116, 2 h, read-out: PERK HCT116 (2 hr) Abs plC50
[12] = HCT-116, 24 h, read-out: pERK HCT116 (24 hr) Abs plC50
[13] = WiDr, 2 h, read-out: PERK WiDr (2 hr) Abs plC50
[14] = HCT-116, 1 h, read-out: PERK HCT116 dimer (1 hr) plC50
[15] = A-375, 1 h, read-out: PERK A375 mono (1 hr) plC50

Row | SMILES | IC50 ([1]; HCT-116, HCT116 cells, 2 hr, absolute pIC50, read-out: PERK HCT116 (2 hr) Abs plC50 (converted)) [nM] | IC50 ([1]; HCT-116, HCT116 cells, 24 hr, absolute pIC50, read-out: pERK HCT116 (24 hr) Abs plC50 (converted)) [nM] | IC50 ([2]; WiDr cells, 2 hr, absolute pIC50, read-out: PERK WiDr (2 hr) Abs plC50 (converted)) [nM] | IC50 ([3]; HCT-116, HCT116 cells, RAF dimer, 1 hr, read-out: PERK HCT116 dimer (1 hr) plC50 (converted)) [nM] | IC50 ([4]; A-375, A375 cells, BRAF monomer, 1 hr incubation, read-out: PERK A375 mono (1 hr) plC50 (converted)) [nM] | microsomal CLint at 1 µM [5] [µL/min/mg] | microsomal CLint at 1 µM [6] [µL/min/mg] | hepatocyte CLint at 1 µM [7] [µL/min/1e6 cells] | hPPB (% free) [8] [% free] | mPPB (% free) [9] [% free] | IC50 [1, 11] [nM] | IC50 [1, 12] [nM] | IC50 [2, 13] [nM] | IC50 [3, 14] [nM] | IC50 [4, 15] [nM] | GI50 (HCT-116 cells) [nM] | GI50 (WiDr cells) [nM] | hepatocyte CLint at 1 µM [10] [µL/min/1e6 cells] | solubility thermodynamic at 24 h (FeSSIF Solubility Assay) [µg/mL]
1 | O=C1CCc2c(Oc3ccc4c(c3)CC(c3nc(-c5cccs5)c[nH]3)CO4)ccnc2N1 (racemic) [B-rac] | 19.1 | 24 | 44.7 | 28.2 | 49 | 60.1 | 58.8 | 11.5 | 0.7 | 0.7 | – | – | – | – | – | – | – | – | –
2 | O=C1CCc2c(Oc3ccc4c(c3)C[C@H](c3nc(-c5ccc(F)cc5)c[nH]3)CO4)ccnc2N1 (single isomer, unassigned) [Compound A-2] | – | – | – | – | – | 11.8 | 80.1 | 11.4 | 0.7 | 0.9 | 69.2 | 115 | 162 | 35.5 | 275 | 263 | 537 | 12.5 | 9.4 (≈ 20.6 µM)
3 | O=C1CCc2c(Oc3ccc4c(c3)CC(c3ncc(-c5ccc(F)cc5)[nH]3)CO4)ccnc2N1 (racemic) [A-rac] | – | – | – | – | – | 26.9 | 30.6 | 4.6 | 0.5 | 1.8 | 74.1 | 87.1 | 56.2 | 49 | 55 | – | – | 23.4 | –
4 | O=C1CCc2c(Oc3ccc4c(c3)C[C@@H](c3nc(-c5ccc(F)cc5)c[nH]3)CO4)ccnc2N1 (single isomer, unassigned) [Compound A-1] | – | – | – | – | – | 21.7 | 16 | 26.8 | 0.5 | 0.8 | 49 | 95.5 | 45.7 | 40.7 | 30.9 | 40.7 | 52.5 | 11 | 9.9 (≈ 21.7 µM)
